The test system of data set [1] is MRSA 63718. Also on record: method as in PMID 25692135. The settings on record: cited from earlier work.
Data set [2] is described as follows: Lipophilicity determination by RP-HPLC (log k, log D). The settings on record: RP-HPLC; for log D6.5: MeOH 72%/acetate buffered saline pH 6.5; for log D7.4: MeOH 72%/acetate buffered saline pH 7.4; for log k: MeOH 72%/water 28%. Format: physicochemical. The procedure:
Lipophilicity was measured by reversed-phase high performance liquid chromatography (RP-HPLC) under isocratic conditions with methanol as the organic modifier in the aqueous mobile phase and the logarithm of the capacity factor k was calculated, which is used as the lipophilicity index converted to the log P scale. In addition to the log k values, the logarithm of the distribution coefficient DpH at pH 6.5 and 7.4 was determined to clarify the behavior of the compounds under physiological conditions and possible ionization. Instead of water, a buffer of suitable pH was used as part of the mobile phase. In addition to the above-mentioned experimental methods, commercially available ChemBioDraw Ultra 13.0 and ACD/Percepta ver. […] In addition to lipophilicity, other parameters discussed in Ro5, such as molecular weight, number of H-bond donors/acceptors, as well as parameters not reported in Ro5, but characterizing the physicochemical properties of the prepared molecules, such as number of rotatable bonds, were predicted using ACD/Percepta. Moreover, for each R substituent, bulkiness expressed as molar volume (MV [cm^3]), a parameter describing the tail length/branching of each carbamates, was calculated.
A HPLC separation module Agilent 1200 Series (Agilent Technologies, Santa Clara, CA, USA) equipped with a Dual Absorbance Detector (DAD SL G1315C, Agilent Technologies) was used. A chromatographic column Symmetry® C18 5 μm, 4.6 × 250 mm, Part No. W21751W016 (Waters Corp, Milford, MA, USA) was used. The HPLC separation process was monitored by ChemStation for LC 3D systems (Agilent Technologies). […] The total flow of the column was 1.0 mL/min, injection 20 μL, column temperature 40 °C, and sample temperature 10 °C. The detection wavelength of 210 nm was chosen. A KI methanolic solution was used for the determination of the dead times (tD). Retention times (tR) were measured in minutes. The capacity factors k were calculated according to the formula k = (tR − tD)/tD, where tR is the retention time of the solute, and tD is the dead time obtained using an unretained analyte. The distribution coefficients DpH were calculated according to the formula DpH = (tR − tD)/tD. Each experiment was repeated three times.

The test system of data set [3] is S. aureus and MRSA isolates. Description: Antistaphylococcal MIC, summary over strains. Format: cell-based, Staphylococcus aureus. The procedure: All the investigated compounds were screened for in vitro antibacterial activity against the reference and quality control strain Staphylococcus aureus ATCC 29213 and clinical isolates of methicillin-resistant S. aureus (MRSA) 63718, SA 630, and SA 3202 [14]. Activities are expressed as the minimum inhibitory concentrations (MICs), see Table 2. In addition to the MICs, the minimum bactericidal concentrations (MBCs) were also determined. […] MBC values that meet this requirement, i.e., the compound is bactericidal, are indicated in bold in Table 2.
(§1) In vitro antibacterial activity of the synthesized compounds was evaluated against representatives of multidrug-resistant bacteria, three clinical isolates of methicillin-resistant S. aureus: clinical isolate of animal origin, MRSA 63718 (Department of Infectious Diseases and Microbiology, Faculty of Veterinary Medicine, University of Veterinary Sciences Brno, Czech Republic), carrying the mecA gene; and MRSA SA 630 [46] and MRSA SA 3202 [46] (National Institute of Public Health, Prague, Czech Republic), both of human origin. Suspected colonies were confirmed by PCR; a 108bp fragment specific for S. aureus was detected. All isolates were tested for the presence of the mecA gene encoding methicillin resistance. […] Vancomycin-susceptible methicillin-susceptible S. aureus (VS-MSSA) ATCC 29213, obtained from the American Type Culture Collection, was used as the reference and quality control strain. Enterococcus faecalis ATCC 29212 was obtained from the American Type Culture Collection and used as the reference and quality control strain.
The minimum inhibitory concentrations (MICs) were evaluated by the microtitration broth method according to the CLSI [64, 65] with some modifications. […]

In data set [4] the test system is MRSA SA 3202. The experiment in a line: MBC, agar aliquot subculture method. Particulars: Staphylococcus aureus. It counts as cell-based. On the procedure: (§2) All the investigated compounds were screened for in vitro antibacterial activity against the reference and quality control strain Staphylococcus aureus ATCC 29213 and clinical isolates of methicillin-resistant S. aureus (MRSA) 63718, SA 630, and SA 3202 [14]. Activities are expressed as the minimum inhibitory concentrations (MICs), see Table 2. In addition to the MICs, the minimum bactericidal concentrations (MBCs) were also determined.
(§3) For the S. aureus and MRSA isolates, the agar aliquot subculture method was used as a test for bactericidal agents. After the MIC value determination, the inoculum was transferred to Mueller–Hinton (Oxoid) agar using a multipoint inoculator. The plates were incubated in a thermostat at 37 °C for 24 h. The lowest concentration of test compound at which ≤5 colonies were obtained was then evaluated as MBC, corresponding to a 99.9% decrease in CFU relative to the original inoculum.

Data set [5] relates to MRSA SA 630. The experiment in a line: MBC, agar aliquot subculture method. It counts as cell-based. Particulars: Staphylococcus aureus. On the procedure: as §2, §3
The subject of data set [6] is MRSA 63718. The experiment in a line: MBC, agar aliquot subculture method. It counts as cell-based. The settings on record: Staphylococcus aureus, MRSA. The procedure: as §2, §3
Data set [7] deals with Staphylococcus aureus ATCC 29213. The experiment in a line: MBC, agar aliquot subculture method. It counts as cell-based. Particulars: ATCC29213, SA = S. aureus ATCC 29213, read-out: MBC. On the procedure:
as §2, §3

For data set [8], the system named is Enterococcus faecalis ATCC 29212. The experiment in a line: MIC, microtitration broth method. Format: cell-based. The settings on record: ATCC29212; EF = Enterococcus faecalis, 24 h; read-out: MIC. On the procedure:
as §1
(§4) The minimum inhibitory concentrations (MICs) were evaluated by the microtitration broth method according to the CLSI [64, 65] with some modifications. The compounds were dissolved in DMSO (Sigma, St. Louis, MO, USA) to get a concentration […] and diluted in a microtitration plate in an appropriate medium, namely, Cation Adjusted Mueller–Hinton (CaMH, Oxoid, Basingstoke, UK) for staphylococci (S. aureus ATCC 29213, clinical isolates of MRSA 63718, SA 630, and SA 3202) and brain heart infusion (BHI, Oxoid) for E. faecalis ATCC 29212, to reach the final concentration of 256-0.125 µg/mL. The plate was inoculated by the tested microorganisms. The final concentration of bacterial cells was 10^5 for bacteria. Ampicillin (Sigma) was used as reference drugs. A drug-free control and a sterility control were included. The plates were incubated for 24 h at 37 °C for staphylococci and E. faecalis ATCC 29212 (stability evaluation of the carbamates, see Supplementary materials, Table S1). […] The experiments were repeated three times.

Data set [9] relates to THP-1 cells. The experiment in a line: In vitro cytotoxicity assay (WST-1). It counts as cell-based. Particulars: Homo sapiens; THP-1, 24 h, ± SD, n = 6; read-out: IC50. The procedure: Preliminary in vitro cytotoxicity screening of the investigated compounds was performed using human monocytic leukemia THP-1 cells, see Table 2. The ability to inhibit the human cancer cell viability (IC50) of the compounds was compared to camptothecin toxicity (0.16 ± 0.07 μM). […] However, these values are up to two orders of magnitude higher than their significant antistaphyloccocal concentrations. This fact is also taken into account in the calculated selectivity index (SI), Table 2, where for only three compounds the SI is <20, while for the rest of the agents SI is >20, and for some derivatives even 100 and more. Thus, based on all these observations, it can be concluded that all the tested derivatives can be considered as in vitro non-toxic compounds for the subsequent design of new therapeutic agents.
The human THP-1 cell line (European Collection of Cell Cultures, Salisbury, UK) was cultured in RPMI 1640 medium supplemented with 10% fetal bovine serum, 2% L-glutamine, 1% penicillin, and streptomycin at 37 °C with 5% CO2. Cells were passaged at approximately 1-week intervals. All the tested compounds were prepared and dissolved as mentioned in our previous work.
For orientation: Tetrazolium assays rely on reduction of a dye to a coloured formazan, in cell work by metabolically active cells.

Data set [10] deals with MRSA SA 3202. The experiment in a line: MIC, microtitration broth method. Particulars: Staphylococcus aureus. Format: cell-based. On the procedure: as §2, §1, §4
Data set [11] relates to MRSA SA 630. Description: MIC, microtitration broth method. It counts as cell-based. Particulars: Staphylococcus aureus. The procedure: as §2, §1, §4
Data set [12] has as its system MRSA 63718. Description: MIC, microtitration broth method. It counts as cell-based. Particulars: Staphylococcus aureus. On the procedure:
as §2, §1, §4

In data set [13] the test system is Staphylococcus aureus ATCC 29213. Description: MIC, microtitration broth method. The settings on record: ATCC29213, SA = S. aureus ATCC 29213, 24 h, read-out: MIC. It counts as cell-based. The procedure:
as §2, §1, §4

Converted amounts (≈) assume the structure as drawn. Where two headings read alike, the source gives them in different places. Some results are limits rather than exact numbers.

This is an account of results in paper PMC9228535, “Antistaphylococcal Activities and ADME-Related Properties of Chlorinated Arylcarbamoylnaphthalenylcarbamates” (Pharmaceuticals, 2022).

Consider `CN[C@H](CC(C)C)C(=O)N[C@H]1C(=O)N[C@@H](CC(N)=O)C(=O)N[C@H]2C(=O)N[C@H]3C(=O)N[C@H](C(=O)N[C@H](C(=O)O)c4cc(O)cc(O)c4-c4cc3ccc4O)[C@H](O)c3ccc(c(Cl)c3)Oc3cc2cc(c3O[C@@H]2O[C@H](CO)[C@@H](O)[C@H](O)[C@H]2O[C@H]2C[C@](C)(N)[C@H](O)[C@H](C)O2)Oc2ccc(cc2Cl)[C@H]1O` [vancomycin], for which, in data set [1], the MIC is 2 µg/mL (≈ 1.38 µM).
As for `CCCCNC(=O)Oc1c(C(=O)Nc2cc(Cl)c(Cl)cc2Cl)ccc2ccccc12` [Compound 4, 2-[N-(2,4,5-Trichlorophenyl)carbamoyl]naphthalen-1-yl butyl carbamate], the “log D6.5” value in [2] was determined as 0.9980. Besides, the “log D7.4” value in data set [2] stood at 1.1401. This molecule also had a log k in data set [2] of 1.0756. The MIC in data set [3] (Staphylococcus aureus, read-out: MICs) was 0.018 to 0.064 µM (≈ 0.00838 to 0.0298 µg/mL); in data set [8], 275 µM (≈ 128 µg/mL); in [10] (24 h) it was 0.069 µM (≈ 0.0321 µg/mL); in data set [11] (24 h), 0.017 µM (≈ 0.00792 µg/mL); in [12] (MRSA, 24 h), 0.135 µM (≈ 0.0629 µg/mL); in data set [13] it was 0.034 µM (≈ 0.0158 µg/mL). Besides, the MBC in [4] turned out to be 0.069 µM (≈ 0.0321 µg/mL); in data set [5], 0.537 µM (≈ 0.25 µg/mL); in data set [6], 0.268 µM (≈ 0.125 µg/mL); in [7], 0.034 µM (≈ 0.0158 µg/mL). In addition, in [9], the IC50 came out at 3.42 ± 0.1 µM.
As to `O=C(Nc1cc(Cl)c(Cl)cc1Cl)c1ccc2ccccc2c1O` [Compound 1, 1-hydroxy-N-(2,4,5-trichlorophenyl)-2-naphthamide], the “log D6.5” value in data set [2] is on record as 0.5782. The “log D7.4” value in data set [2] came out at 0.5384. The same molecule displayed a log k in data set [2] of 0.6600. Besides, the “antistaphylococcal/antibacterial activity (in words)” value in data set [3] (S. aureus and MRSA isolates) was “no antibacterial activity”. Also, the MIC was determined as 477 µM (≈ 175 µg/mL) in data set [8]; 698 µM (≈ 256 µg/mL) in data set [10] (MRSA3 = SA 3202, 24 h, read-out: MIC); 698 µM (≈ 256 µg/mL) in data set [11] (MRSA2 = SA 630, 24 h, read-out: MIC); 698 µM (≈ 256 µg/mL) in data set [12] (MRSA1 = MRSA 63718, 24 h, read-out: MIC); 698 µM (≈ 256 µg/mL) in data set [13]. In addition, in data set [9], the IC50 was more than 30 µM.

For orientation: MBC means the smallest concentration meeting the test's criterion for killing. Broadly, the IC50 is the midpoint of a concentration-inhibition curve.
